{"source": "patent US4014883A", "about": "“Indoloquinolines, intermediates and processes” (Hoffmann-La Roche Inc., priority 1975, dated 1977)", "key": {"acute LD50 in mice": {"assay": "acute LD50 in mice", "conditions": "mouse, in vivo"}, "Sarcoma 180 (S-180)": {"test_system": "Sarcoma 180 (S-180)", "assay": "inhibition of growth of transplantable Sarcoma 180 (S-180) tumors, C/T ratio", "format": "in vivo", "conditions": "S-180 in mice, once daily for 8 days, ratio greater than 2 = active"}}, "data": [{"smiles": "CN(C)CCn1c(=O)c2[nH]c3ccc(Cl)cc3c2c2ccccc21", "note": "[10-chloro-5-(2-dimethylaminoethyl)-7H-indolo[2,3-c]quinolin-6(5H)-one]", "values": [{"measurement": "LD50", "setting": "acute LD50 in mice; ip", "result": "> 2000", "unit": "mg/kg"}, {"measurement": "LD50", "setting": "acute LD50 in mice; po", "result": "> 4000", "unit": "mg/kg"}, {"measurement": "C/T ratio (average tumor weight of untreated controls / treated)", "setting": "Sarcoma 180 (S-180); 100 mg/kg i.p.", "result": 3.50}, {"measurement": "C/T ratio (average tumor weight of untreated controls / treated)", "setting": "Sarcoma 180 (S-180); 100 mg/kg orally", "result": 3.05}]}]}
